Target: Pseudomonas aeruginosa LpxC enzyme (Pseudomonas aeruginosa (strain ATCC 15692 / DSM 22644 / CIP 104116 / JCM 14847 / LMG 12228 / 1C / PRS 101 / PAO1), UniProt P47205)
Test: biochemical
Type: biochemical
Settings: class symbols A/B/C by IC50; Table 3; read-out: Enzyme inhibitory activity (inhibitory activity on Pseudomonas aeruginosa LpxC enzyme)

IC50 [nM]	SMILES
< 10	CCOC1CN(Cc2ccc(C#Cc3ccc(C(=O)N(C)C(C(=O)NC)C(=O)NO)cc3)cc2C(F)(F)F)C1 (stereo not shown) [Compound 573, 2-[{[4-({4-[(3-ethoxyazetidin-1-yl)methyl]-3-(trifluoromethyl)phenyl}ethynyl)phenyl]carbonyl}(methyl)amino]-N-hydroxy-N′-methylpropanediamide]
< 10	CNC(=O)C(C(=O)NO)N(C)C(=O)c1ccc(C#Cc2ccc(CN3CC4CC4C3)cc2)cc1 (stereo not shown) [Compound 515, 2-{[(4-{[4-(3-azabicyclo[3.1.0]hex-3-ylmethyl)phenyl]ethynyl}phenyl)carbonyl](methyl)amino}-N-hydroxy-N′-methylpropanediamide]

Same assay, conditions: inhibitory activity on Pseudomonas aeruginosa LpxC enzyme, class symbols A/B/C; read-out: Enzyme inhibitory activity

SMILES	IC50 [nM]
CNC(=O)C(C(=O)NO)N(C)C(=O)c1ccc(-c2ccc(C)nc2)cc1 (stereo not shown) [Compound 450, N-hydroxy-N′-methyl-2-(methyl {[4-(6-methylpyridin-3-yl)phenyl]carbonyl}amino)propanediamide]	> 100
CNC(=O)C(C(=O)NO)N(C)C(=O)c1ccc(-c2ccc(NC)c(OC)c2)cc1 (stereo not shown) [Compound 50, N-hydroxy-2-[{[3′-methoxy-4′-(methylamino)biphenyl-4-yl]carbonyl}(methyl)amino]-N′-methylpropanediamide]	10 to 100
CNC(=O)C(C(=O)NO)N(C)C(=O)c1ccc(-c2ccc(F)cn2)cc1 (stereo not shown) [Compound 108, 2-{[4-(5-fluoropyridin-2-yl)benzoyl](methyl)amino}-N-hydroxy-N′-methylpropanediamide]	> 100
CCCCc1ccc(-c2ccc(C(=O)N(C)C(C(=O)NC)C(=O)NO)cc2)cn1 (stereo not shown) [Compound 474, 2-[{[4-(6-butylpyridin-3-yl)phenyl]carbonyl}(methyl)amino]-N-hydroxy-N′-methylpropanediamide]	10 to 100
CNC(=O)C(C(=O)NO)N(C)C(=O)c1ccc(-c2ccc(OCCCN(C)CCOC)cc2)cc1 (stereo not shown) [Compound 64, N-hydroxy-2-{[(4′-{3-[(2-methoxyethyl)(methyl)amino]propoxy}biphenyl-4-yl)carbonyl](methyl)amino}-N′-methylpropanediamide]	10 to 100
CNC(=O)C(C(=O)NO)N(C)C(=O)c1ccc(-c2cnc3ccccc3c2)cc1 (stereo not shown) [Compound 192, N-hydroxy-N′-methyl-2-{methyl[4-(quinolin-3-yl)benzoyl]amino}propanediamide]	10 to 100
CNC(=O)C(C(=O)NO)N(C)C(=O)c1ccc(-c2ccccc2)cc1F (stereo not shown) [Compound 27, 2-{[(3-fluorobiphenyl-4-yl)carbonyl](methyl)amino}-N-hydroxy-N′-methylpropanediamide]	10 to 100
CNC(=O)C(C(=O)NO)N(C)C(=O)c1ccc(-c2ccc(N3CCOC3=O)cc2)cc1 (stereo not shown) [Compound 247, N-hydroxy-N′-methyl-2-(methyl {[4′-(2-oxo-1,3-oxazolidin-3-yl)biphenyl-4-yl]carbonyl}amino)propanediamide]	10 to 100
CNC(=O)C(C(=O)NO)N(C)C(=O)c1ccc(-c2cc(C)ccn2)cc1 (stereo not shown) [Compound 452, N-hydroxy-N′-methyl-2-(methyl {[4-(4-methylpyridin-2-yl)phenyl]carbonyl}amino)propanediamide]	> 100
CNC(=O)C(C(=O)NO)N(C)C(=O)c1ccc(-c2ccc(CN(C)C)cc2)cc1 (stereo not shown) [Compound 194, 2-[({4′-[(dimethylamino)methyl]biphenyl-4-yl}carbonyl)(methyl)amino]-N-hydroxy-N′-methylpropanediamide]	> 100
CNC(=O)C(C(=O)NO)N(C)C(=O)c1ccc(-n2cccc2)cc1 (stereo not shown) [Compound 307, N-hydroxy-N′-methyl-2-(methyl {[4-(1H-pyrrol-1-yl)phenyl]carbonyl}amino)propanediamide]	> 100
CNC(=O)C(C(=O)NO)N(C)C(=O)c1ccc(C#Cc2ccc(N3CCN(C)CC3)cc2)cc1 (stereo not shown) [Compound 473, N-hydroxy-N′-methyl-2-{methyl[(4-{[4-(4-methylpiperazin-1-yl)phenyl]ethynyl}phenyl)carbonyl]amino}propanediamide]	10 to 100
CC(=O)NCCNC(=O)C(NC(=O)c1ccc(-c2ccc(OCCO)cc2)cc1)C(=O)NO (stereo not shown) [Compound 135, N-[2-(acetylamino)ethyl]-N′-hydroxy-2-({[4′-(2-hydroxyethoxy)biphenyl-4-yl]carbonyl}amino)propanediamide]	< 10
O=C(NC(C(=O)NO)C(=O)NCCc1ccccn1)c1ccc(-c2ccc(OCCO)cc2)cc1 (stereo not shown) [Compound 151, N-hydroxy-2-({[4′-(2-hydroxyethoxy)biphenyl-4-yl]carbonyl}amino)-N′-[2-(pyridin-2-yl)ethyl]propanediamide]	< 10

Further lines, results first:

IC50 [nM]	SMILES
< 10	CCNc1ccc(-c2ccc(C(=O)N(C)C(C(=O)NC)C(=O)NO)cc2)cc1F (stereo not shown) [Compound 230, 2-[{[4′-(ethylamino)-3′-fluorobiphenyl-4-yl]carbonyl}(methyl)amino]-N-hydroxy-N′-methylpropanediamide]
< 10	CNC(=O)C(C(=O)NO)N(C)C(=O)c1ccc(-c2ccc(OCCN(C)c3ccccc3)cc2)cc1 (stereo not shown) [Compound 89, N-hydroxy-N′-methyl-2-{methyl[(4′-{2-[methyl(phenyl)amino]ethoxy}biphenyl-4-yl)carbonyl]amino}propanediamide]
< 10	CNC(=O)C(C(=O)NO)N(C)C(=O)c1ccc(C#Cc2ccc(CN3CCOCC3)cc2)cc1 (stereo not shown) [Compound 167, N-hydroxy-N′-methyl-2-[methyl(4-{[4-(morpholin-4-ylmethyl)phenyl]ethynyl}benzoyl)amino]propanediamide]
< 10	CNC(=O)C(C(=O)NO)N(C)C(=O)c1ccc(-c2ccc(OCCCN(C)Cc3ccccc3)cc2)cc1 (stereo not shown) [Compound 70, 2-{[(4′-{3-[benzyl(methyl)amino]propoxy}biphenyl-4-yl)carbonyl](methyl)amino}-N-hydroxy-N′-methylpropanediamide]
< 10	CNC(=O)C(C(=O)NO)N(C)C(=O)c1ccc(-c2ccc(OCCCN3CCS(=O)(=O)CC3)cc2)cc1 (stereo not shown) [Compound 289, 2-[({4′-[3-(1,1-dioxidothiomorpholin-4-yl)propoxy]biphenyl-4-yl}carbonyl)(methyl)amino]-N-hydroxy-N′-methylpropanediamide]
< 10	CCCOc1ccc(-c2ccc(C(=O)N(C)C(C(=O)NC)C(=O)NO)cc2)cn1 (stereo not shown) [Compound 467, N-hydroxy-N′-methyl-2-(methyl {[4-(6-propoxypyridin-3-yl)phenyl]carbonyl}amino)propanediamide]
< 10	CCCNc1ccc(-c2ccc(C(=O)N(C)C(C(=O)NC)C(=O)NO)cc2)cc1 (stereo not shown) [Compound 245, N-hydroxy-N′-methyl-2-(methyl {[4′-(propylamino)biphenyl-4-yl]carbonyl}amino)propanediamide]
< 10	O=C1COc2ccc(CNC(=O)C(NC(=O)c3ccc(-c4ccc(OCCO)cc4)cc3)C(=O)NO)nc2N1 (stereo not shown) [Compound 152, N-hydroxy-2-({[4′-(2-hydroxyethoxy)biphenyl-4-yl]carbonyl}amino)-N′-[(3-oxo-3,4-dihydro-2H-pyrido[3,2-b][1,4]oxazin-6-yl)methyl]propanediamide]
< 10	CNC(=O)C(C(=O)NO)N(C)C(=O)c1ccc(-c2ccc(OC(F)(F)C(F)F)cc2)cc1 (stereo not shown) [Compound 83, N-hydroxy-N′-methyl-2-(methyl {[4′-(1,1,2,2-tetrafluoroethoxy)biphenyl-4-yl]carbonyl}amino)propanediamide]
